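Following 48 hours of exposure in 96-well plates, responses at five concentrations were used to interpolate endpoints linearly. TGI: total growth inhibition.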
Experiments:
Assay in all cases: NCI-60 cell line screen, 48 h
DU-145 prostate = test system: DU-145 prostate
SK-MEL-28 melanoma = test system: SK-MEL-28 melanoma
T-47D breast = test system: T-47D breast
OVCAR-8 ovarian = test system: OVCAR-8 ovarian
UACC-257 melanoma = test system: UACC-257 melanoma
IGROV1 ovarian = test system: IGROV1 ovarian
CCRF-CEM leukemia = test system: CCRF-CEM leukemia
NCI/ADR-RES ovarian = test system: NCI/ADR-RES ovarian
KM12 colon = test system: KM12 colon
786-0 renal = test system: 786-0 renal
PC-3 prostate = test system: PC-3 prostate
A549 NSCLC = test system: A549 NSCLC
SK-MEL-5 melanoma = test system: SK-MEL-5 melanoma
MDA-N = test system: MDA-N
OVCAR-3 ovarian = test system: OVCAR-3 ovarian
UO-31 renal = test system: UO-31 renal
NCI-H226 lung = test system: NCI-H226 lung
SF-295 CNS = test system: SF-295 CNS
MALME-3M melanoma = test system: MALME-3M melanoma
OVCAR-4 ovarian = test system: OVCAR-4 ovarian
CAKI-1 renal = test system: CAKI-1 renal
LOX IMVI melanoma = test system: LOX IMVI melanoma
SNB-19 CNS = test system: SNB-19 CNS
EKVX NSCLC = test system: EKVX NSCLC
MOLT-4 leukemia = test system: MOLT-4 leukemia
COLO 205 colon = test system: COLO 205 colon
SK-OV-3 ovarian = test system: SK-OV-3 ovarian
HT29 colon = test system: HT29 colon
U251 CNS = test system: U251 CNS
NCI-H460 lung = test system: NCI-H460 lung
UACC-62 melanoma = test system: UACC-62 melanoma
ACHN renal = test system: ACHN renal
M14 melanoma = test system: M14 melanoma
SF-268 CNS = test system: SF-268 CNS
SK-MEL-2 melanoma = test system: SK-MEL-2 melanoma
SW-620 colon = test system: SW-620 colon
SN12C renal = test system: SN12C renal
HCC-2998 colon = test system: HCC-2998 colon
HCT-116 colon = test system: HCT-116 colon
MDA-MB-231 breast = test system: MDA-MB-231 breast
HL-60(TB) leukemia = test system: HL-60(TB) leukemia
RPMI-8226 leukemia = test system: RPMI-8226 leukemia
SNB-75 CNS = test system: SNB-75 CNS
HOP-92 NSCLC = test system: HOP-92 NSCLC
MDA-MB-435 = test system: MDA-MB-435
OVCAR-5 ovarian = test system: OVCAR-5 ovarian
A498 renal = test system: A498 renal
NCI-H23 lung = test system: NCI-H23 lung
HS 578T breast = test system: HS 578T breast
SF-539 CNS = test system: SF-539 CNS
HCT-15 colon = test system: HCT-15 colon
NCI-H522 lung = test system: NCI-H522 lung
MCF7 breast = test system: MCF7 breast
BT-549 breast = test system: BT-549 breast
TK-10 renal = test system: TK-10 renal
HOP-62 NSCLC = test system: HOP-62 NSCLC
SR leukemia = test system: SR leukemia

With `COC(=O)c1ccc(NCc2c(O)ccc(O)c2Br)cc1Cl` the TGI (DU-145 prostate) was 30.4 µM, the TGI (SK-MEL-28 melanoma) was 30.7 µM and the TGI (T-47D breast) was 43.3 µM. For the same compound, the TGI (OVCAR-8 ovarian) was 30 µM, the TGI (UACC-257 melanoma) was 83.8 µM and the TGI (IGROV1 ovarian) was 28.7 µM. For the same compound, the TGI (CCRF-CEM leukemia) was greater than 100 µM, the TGI (NCI/ADR-RES ovarian) was 44.9 µM and the TGI (KM12 colon) was 31 µM. For the same compound, the TGI (786-0 renal) was 32.6 µM, the TGI (PC-3 prostate) was 44 µM and the TGI (A549 NSCLC) was greater than 100 µM. It also gave a TGI (SK-MEL-5 melanoma) of 34.6 µM, a TGI (MDA-N) of 26 µM and a TGI (OVCAR-3 ovarian) of 20.9 µM. For the same compound, the TGI (UO-31 renal) was 29.8 µM, the TGI (NCI-H226 lung) was greater than 100 µM and the TGI (SF-295 CNS) was 35 µM. It also gave a TGI (MALME-3M melanoma) of 33.2 µM, a TGI (OVCAR-4 ovarian) of 44.2 µM and a TGI (CAKI-1 renal) of 29.9 µM. For the same compound, the TGI (LOX IMVI melanoma) was 27.3 µM, the TGI (SNB-19 CNS) was greater than 100 µM and the TGI (EKVX NSCLC) was 28.5 µM. It also gave a TGI (MOLT-4 leukemia) of 40.9 µM, a TGI (COLO 205 colon) of 33.4 µM and a TGI (SK-OV-3 ovarian) greater than 100 µM. The TGI (HT29 colon) was 40.2 µM, the TGI (U251 CNS) was 30.4 µM and the TGI (NCI-H460 lung) was 41.9 µM. The TGI (UACC-62 melanoma) was 30.3 µM, the TGI (ACHN renal) was 30.6 µM and the TGI (M14 melanoma) was 33.3 µM. For the same compound, the TGI (SF-268 CNS) was 41.2 µM, the TGI (SK-MEL-2 melanoma) was 40.8 µM and the TGI (SW-620 colon) was 25 µM. The TGI (SN12C renal) was 25.7 µM, the TGI (HCC-2998 colon) was 39.4 µM and the TGI (HCT-116 colon) was 33.3 µM. The TGI (MDA-MB-231 breast) was 29.4 µM, the TGI (HL-60(TB) leukemia) was 4.52 µM and the TGI (RPMI-8226 leukemia) was greater than 100 µM. For the same compound, the TGI (SNB-75 CNS) was 70.2 µM, the TGI (HOP-92 NSCLC) was 28.4 µM and the TGI (MDA-MB-435) was 26.5 µM. It also gave a TGI (OVCAR-5 ovarian) of 28.6 µM, a TGI (A498 renal) greater than 100 µM and a TGI (NCI-H23 lung) of 32.9 µM. For the same compound, the TGI (HS 578T breast) was 95.4 µM, the TGI (SF-539 CNS) was 30.4 µM and the TGI (HCT-15 colon) was 35.9 µM. For the same compound, the TGI (NCI-H522 lung) was 3.51 µM, the TGI (MCF7 breast) was 32.2 µM and the TGI (BT-549 breast) was 24.7 µM.
`COc1cc2cc(C(=O)N3CC(CCl)c4c3cc(NCCN)c3ccccc43)[nH]c2c(OC)c1OC` (centres undefined) gave a TGI (DU-145 prostate) of 1.07 µM, a TGI (SK-MEL-28 melanoma) of 0.564 µM and a TGI (T-47D breast) of 1.07 µM. The TGI (NCI/ADR-RES ovarian) was 0.0799 µM, the TGI (KM12 colon) was less than 0.01 µM and the TGI (PC-3 prostate) was less than 0.0328 µM. For the same compound, the TGI (MDA-N) was less than 0.0203 µM, the TGI (UO-31 renal) was less than 0.0132 µM and the TGI (SF-295 CNS) was less than 0.0468 µM. The TGI (MALME-3M melanoma) was less than 0.0134 µM, the TGI (OVCAR-4 ovarian) was 0.054 µM and the TGI (CAKI-1 renal) was less than 0.01 µM. For the same compound, the TGI (EKVX NSCLC) was 0.0789 µM, the TGI (COLO 205 colon) was less than 0.01 µM and the TGI (SK-OV-3 ovarian) was 1.42 µM. For the same compound, the TGI (U251 CNS) was less than 0.01 µM, the TGI (UACC-62 melanoma) was less than 0.01 µM and the TGI (ACHN renal) was less than 0.01 µM. It also gave a TGI (M14 melanoma) of less than 0.0121 µM, a TGI (SF-268 CNS) of 0.484 µM and a TGI (TK-10 renal) of less than 0.0181 µM. For the same compound, the TGI (SK-MEL-2 melanoma) was less than 0.01 µM, the TGI (SW-620 colon) was 0.311 µM and the TGI (SN12C renal) was less than 0.017 µM. The TGI (SNB-75 CNS) was 0.0479 µM, the TGI (HOP-92 NSCLC) was less than 0.01 µM and the TGI (MDA-MB-435) was less than 0.01 µM. It also gave a TGI (A498 renal) of less than 0.0136 µM, a TGI (NCI-H23 lung) of less than 0.01 µM and a TGI (HOP-62 NSCLC) of less than 0.0221 µM. For the same compound, the TGI (HCT-15 colon) was 0.0536 µM, the TGI (NCI-H522 lung) was less than 0.01 µM and the TGI (MCF7 breast) was less than 0.01 µM. It also gave a TGI (SR leukemia) greater than 100 µM and a TGI (BT-549 breast) of 0.0817 µM.

Source: PubChem BioAssay (NCI)
